In experiment [1] the target is T1, type 1 PrP^Sc (Homo sapiens, UniProt P04156). As to conditions: for effectiveness in maintaining type 1 PrP^Sc conformation: 30 μM metal ion; for effect of metal ion on electrophoretic mobility of metal-depleted, proteinase K digested type 1 PrP^Sc: exposure prior to and during electrophoresis, FIG. 4b; for digestion products of type 1 PrP^Sc washed in maintained presence of metal ion: total concentrations observed in serum, FIG. 4a; for concentration at which type 1 PrP^Sc conformation could be readily maintained: washing before PK digestion.

The next experiment deals with amyloid Aβ protein. As to conditions: cited from earlier work.
Experiment [2] concerns the target T1, type 1 PrP^Sc. The class given is biochemical. As to conditions: FIGS. 3e and f; for ability of selective chelator to mirror the EDTA action on type 1 PrP^Sc cleavage: 20 mM chelator, N-ethylmorpholine buffer; for cleavage pattern of type 1 PrP^Sc digested in presence of copper-selective chelator: 20 mM, intermediate between type 1 and type 2^-.
The next experiment deals with type 2 PrP^Sc (Homo sapiens, UniProt P04156). The settings on record: different concentrations; FIG. 4d.
Experiment [3] concerns the target recombinant full length hamster PrP (Mesocricetus auratus, UniProt P04273). The settings on record: read-out: dissociation constant of Cu^2+ binding; cited from earlier work.

recombinant full length hamster PrP, sequence (P04273 23-254 limits assumed): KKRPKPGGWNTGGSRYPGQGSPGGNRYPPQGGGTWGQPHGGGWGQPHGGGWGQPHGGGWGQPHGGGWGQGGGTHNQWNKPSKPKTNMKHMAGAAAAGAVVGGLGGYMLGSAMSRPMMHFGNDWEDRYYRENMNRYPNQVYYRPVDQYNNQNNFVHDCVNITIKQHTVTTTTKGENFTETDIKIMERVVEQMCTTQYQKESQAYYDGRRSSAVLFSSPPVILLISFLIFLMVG

As to `[Cl][Ni][Cl]` [Ni^2+], the “effectiveness in maintaining type 1 PrP^Sc conformation” value (from here on “effectiveness”) on type 1 PrP^Sc [1] (FIG. 4c) is on record as “can effectively substitute”. Besides, the “induction of aggregation of Aβ protein” value with amyloid Aβ protein was “also effective”.
For `O=S(=O)(O)c1ccc(-c2ccnc3c2ccc2c(-c4ccc(S(=O)(=O)O)cc4)ccnc23)cc1` [bathophenanthroline disulfonic acid], the “ability of selective chelator to mirror the EDTA action on type 1 PrP^Sc cleavage” value (from here on “ability of selective chelator”) at type 1 PrP^Sc [2] is “unable to precisely mirror this action”.
As to `[Cl-].[Cl-].[Zn+2]` [Zn^2+], at type 1 PrP^Sc [1], the “effect of metal ion on electrophoretic mobility of metal-depleted, proteinase K digested type 1 PrP^Sc” value is on record as “had no effect”; the “digestion products of type 1 PrP^Sc washed in maintained presence of metal ion” value is on record as “digestion products closely resembled those generated from untreated type 1 PrP^Sc”; the “concentration at which type 1 PrP^Sc conformation could be readily maintained” value is 10 µM. Further, the “digestion products of type 2 PrP^Sc washed in maintained presence of metal ion” value at type 2 PrP^Sc was “either the original type 2 pattern of digestion products, or a new pattern of higher molecular mass cleavage fragments closely similar to those generated from untreated type 1 PrP^Sc”. In addition, the “induction of aggregation of Aβ protein” value in the experiment on amyloid Aβ protein is on record as “able to induce aggregation of Aβ protein”.
In the case of `c1cnc2c(c1)ccc1cccnc12` [1, 10 phenanthroline], on type 1 PrP^Sc [2], the “ability of selective chelator” value is “unable to precisely mirror this action”.
`O=C(O)CN(CCOCCOCCN(CC(=O)O)CC(=O)O)CC(=O)O` [EGTA]: at type 1 PrP^Sc [2], the “ability of selective chelator” value is “unable to precisely mirror this action” and the “cleavage pattern of type 1 PrP^Sc digested in presence of copper-selective chelator” value is “intermediate pattern”.
The matching figures for `NCCNCCNCCN` [triethylenetetramine]: “unable to precisely mirror this action” and “intermediate pattern”.
On to `O=C(O)c1cccc(C(=O)O)n1` [dipicolinic acid], for which the “ability of selective chelator” value at type 1 PrP^Sc [2] is on record as “unable to precisely mirror this action”.
For `[Cl-].[Cl-].[Co+2]` [Co^2+], at type 1 PrP^Sc [1] (FIG. 4c), the “effectiveness” value was “only Ni^2+ can effectively substitute”. For the same molecule, the “cleavage pattern of type 1 PrP^Sc after washing and digestion with Co^2+” value on type 1 PrP^Sc [1] (30 μM, FIG. 4c) was “intermediate pattern”. Also, the “induction of aggregation of Aβ protein” value with amyloid Aβ protein is recorded as “also effective”.
As to `[Cl][Mn][Cl]` [Mn^2+], the “effectiveness” value on type 1 PrP^Sc [1] (FIG. 4c) is listed as “only Ni^2+ can effectively substitute”.
With `O=S(=O)([O-])[O-].[Cu+2]` [Cu^2+], the “cleavage pattern of type 1 PrP^Sc after washing and digestion with Cu^2+” value on type 1 PrP^Sc [1] (20 μM of range 10-25 μM, FIG. 4a lanes 6-8) is “migrated with a mobility similar to that of the type 2 products”. In addition, on type 1 PrP^Sc [1], the “effect of metal ion on electrophoretic mobility of metal-depleted, proteinase K digested type 1 PrP^Sc” value is given as “had no effect”; the “digestion products of type 1 PrP^Sc washed in maintained presence of metal ion” value was “digestion products closely resembled those generated from untreated type 1 PrP^Sc”; the “concentration at which type 1 PrP^Sc conformation could be readily maintained” value is reported as “higher concentrations of Cu^2+ were required”. In addition, the “digestion products of type 2 PrP^Sc washed in maintained presence of metal ion” value on type 2 PrP^Sc was “either the original type 2 pattern of digestion products, or a new pattern of higher molecular mass cleavage fragments closely similar to those generated from untreated type 1 PrP^Sc”. For the same molecule, the “induction of aggregation of Aβ protein” value with amyloid Aβ protein is “able to induce aggregation of Aβ protein”. For the same molecule, the Kd in experiment [3] is 14 µM.
As to `Cc1ccc2ccc3ccc(C)nc3c2n1` [neocuproine], the “ability of selective chelator” value on type 1 PrP^Sc [2] is given as “unable to precisely mirror this action”.

These data come from US6887676B1 (priority 1999, dated 2005).
